The nature of series [1]: in vivo. Particulars: mouse, IV, mice.
For series [2], the system named is α-adrenergic receptor. Briefly: Anesthetized dog assay for α-adrenergic blocking agents (inhibition of norepinephrine induced pressor responses). Type of series: in vivo. The procedure:
(§1) In Table 1, antihypertensive activity was determined by oral administration to spontaneous hypertensive rats, and the in vitro and in vivo α-adrenergic receptor blocking effect was determined by tests described following Table 1. In the in vitro test, the inhibition by BL-5111 of norepinephrine induced contractions of rat seminal vesicles was measured; and in the in vivo test, the inhibition by BL-5111 of norepinephrine induced pressor responses in anesthetized dogs was measured.
Nash, C. B., Pharmacological Research Communications, 4:423, (1969) and Maxwell, R. A., Drill's Pharmacology in Medicine, (1971) p. 683 have shown that in anesthetized dogs α-adrenergic blocking agents antagonize the blood pressure elevating effects of intravenous norepinephrine. Thus, blood pressure responses to norepinephrine (NE) in anesthetized dogs was used as a comparative assay for α-adrenergic receptor blocking properties of drugs.
Experiments were done on mongrel dogs anesthetized with sodium pentobarbital, 30 mg./kg. iv. The left femoral artery was cannulated to record aortic blood pressure and a femoral vein was cannulated for administration of drugs. All animals underwent a bilateral vagotomy. A norepinephrine dose-response curve was obtained by administering increasing doses of iv. norepinephrine (0.01 - 1 μg/kg). […] Approximately 30 minutes later a dose-response curve was again established for iv. norepinephrine (0.01-10 μg/kg).

Series [3] concerns the target T1, α-adrenergic receptor (Rattus norvegicus, UniProt P43140).
T1 construct: Seminal vesicles were removed and transfered to a shallow dish containing modified Tyrode's solution; from tissue; host or cells: isolated seminal vesicle of male Long Evans rats
T1 sequence (P43140 1-466): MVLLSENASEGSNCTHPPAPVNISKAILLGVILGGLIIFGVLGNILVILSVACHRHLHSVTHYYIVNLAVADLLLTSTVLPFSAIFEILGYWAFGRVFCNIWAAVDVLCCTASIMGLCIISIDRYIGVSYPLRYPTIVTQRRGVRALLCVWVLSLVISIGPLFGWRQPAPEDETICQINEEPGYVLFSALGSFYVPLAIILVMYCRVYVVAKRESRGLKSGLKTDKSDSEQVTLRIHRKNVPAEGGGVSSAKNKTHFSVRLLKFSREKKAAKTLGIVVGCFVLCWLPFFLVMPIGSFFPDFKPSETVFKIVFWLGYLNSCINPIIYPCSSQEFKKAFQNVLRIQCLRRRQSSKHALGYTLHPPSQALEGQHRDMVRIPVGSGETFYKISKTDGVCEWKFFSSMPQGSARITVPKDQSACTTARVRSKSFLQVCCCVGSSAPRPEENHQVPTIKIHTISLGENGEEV
Briefly: Isolated rat seminal vesicle assay (inhibition of norepinephrine induced contractions; α-adrenergic receptor blocking effect in vitro). As to conditions: for decrease in the sensitivity of isolated rat seminal vesicles to the stimulant activity of NE: 10 nanograms/ml; for NE ED50 with 95% Conf. Limits: NE ED50 in presence of test compound 10 nano/ml, control 0.89 (0.84-0.94). The protocol: as §1
Dangan et al, Int. […] Lietch et al, Brit.
Male Long Evans rats weighing approximately 300 g. were sacrificed by a sharp blow on the head. Seminal vesicles were removed and transfered to a shallow dish containing modified Tyrode's solution. The vesicles were emptied of their contents by squeezing them gently with a pair of forceps. Silk thread (4-0) was attached to both ends of the vesicle and it was suspended in a 20 ml. muscle chamber containing modified oxygenated Tyrode's solution (g./liter: NaCl 8, KCl 0.2, CaCl2 0.26, NaHCO3 1, Na2 HPO4 0.0575, glucose 0.5 and MgCl2 0.02). The bathing fluid was maintained at 37° C. with a thermostatically controlled isolated organ tissue bath. Contractions were recorded isometrically by means of a force displacement transducer and recordings were made with a Beckman RP Dynograph. Norepinephrine (NE) was added to the muscle chamber in volumes ranging from 0.1 to 0.4 ml. with a one ml. syringe attached to a 3 inch 20 gauge needle. NE and test compounds were dissolved in deionized water.
NE dose response curves were obtained alone and in the presence of test compounds. NE was allowed to remain in contact with the strip until a maximal contraction was obtained. The strip was then washed with the perfusion fluid for 15-30 seconds and the preparation was allowed to return to base line before a subsequent dose of NE was given. Increasing amounts of NE were injected into the bath in the same manner until a complete dose response was obtained.
The seminal vesicles used to obtain the control NE dose response were discarded and new preparations were placed in the tissue bath for evaluation of the test compound. The test compound was added directly to the perfusion fluid (10 nanograms/ml.) and the strips were allowed to remain in contact with the bathing media for at least 10 minutes before the NE dose response was determined.
ED50 values for NE were obtained by regression analysis as described by Finney, Probit. Analysis, 2d Ed., Cambridge (1964). A minimum of 4 strips and at least 4 doses were employed to calculate the regression lines. The ED50 value is defined as the concentration of NE which produces a contraction equal to 50% of the maximal contraction.

Series [4] has as its system spontaneous hypertensive rats. As to the kind of experiment: Antihypertensive activity, oral administration to spontaneous hypertensive rats. Particulars: for ED50: Rattus norvegicus, read-out: Antihypertensive Activity ED50 mm Hg. Format: in vivo, rat. The protocol: In Table 1, antihypertensive activity was determined by oral administration to spontaneous hypertensive rats, and the in vitro and in vivo α-adrenergic receptor blocking effect was determined by tests described following Table 1.

Series [5] can be described thus: Solubility in water. Format: physicochemical. Particulars: in words. The protocol: Compound I can exist in two polymorphic forms. In an earlier experiment similar to Experiment E with the exception that an excess of piperazine hydrobromide was used, a water soluble form (Isomorph A) of Compound I having a M.P. of 224°-228° C. was obtained. This product was recrystallized from nitromethane to give an analytical sample of Isomorph A having a M.P. of 227°-229° C.
A 200 mg. sample of Isomorph A was dissolved in 10 ml. of water at 20° C. The solution was heated at 60° C. for 3 minutes, then cooled to 35° C. and filtered. […] This product was termed Isomorph B of Compound I.

Series [6] concerns α-adrenergic receptor. As to conditions: in words; literature; cited from earlier work.
For series [7], the system named is vascular smooth muscle. Particulars: in words; literature; cited from earlier work.
The test system of series [8] is humans. As to conditions: clinical, in words; literature; cited from earlier work.
In series [9] the test system is humans. As to the kind of experiment: Clinical use as antihypertensive agent (literature). Type of series: in vivo, human. As to conditions: lower end of clinical daily dosage range (trimazosin 150 to 500 mg, prazosin 1.5 to 15 mg).
Where [10] appears, read: 10 nano/ml, isolated rat seminal vesicles.
The mark [11] stands for this setting: 1 mg/kg, oral, spontaneous hypertensive rats.
Where [12] appears, read: 3 mg/kg, oral, spontaneous hypertensive rats.
[13] abbreviates: 10 mg/kg, oral, spontaneous hypertensive rats.
Where [14] appears, read: oral, spontaneous hypertensive rats.

A word on the LD50: it is the dose expected to kill half of the subjects tested. A lower LD50 goes with greater toxicity. As usually defined, the ED50 is the midpoint of the dose-response relation. In turn, `COc1cc2nc(N3CCN(C(=O)c4nnc(SC)o4)CC3)nc(N)c2cc1OC.Cl` [BL-5111, 4-Amino-6,7-dimethoxy-2-[4-(5-methylthio-1,3,4-oxadiazole-2-carbonyl)-piperazin-1-yl]-quinazoline hydrochloride] showed a median lethal dose (LD50) in series [1] of 45.7 mg/kg. Also, the “times less active than prazosin in causing α-adrenergic blockade” value in [2] (3 mg/kg iv, anesthetized dogs) was “approximately 30 times”. In [2] (Table 1, relative to prazosin, intravenous, anesthetized dogs), the “α-Adrenergic Receptor Blocking Effect, In Vivo Activity Ratio” value was determined as 0.04. Also, the “Activity Ratio Relative to Prazosin” value in series [2] (Table III, 3 mg/kg iv, anesthetized dogs) is 0.036; in series [3] (Table II, 10 nano/ml, isolated rat seminal vesicles) it was 0.008. Moreover, the “peripheral α-adrenergic blocking properties” value in series [2] (in words, in vitro and in vivo tests together (Table 1)) was “little or none of the peripheral α-adrenergic blocking properties shown by prazosin”. Also, the “Percent Change From Control (NE ED50)” value in series [3] (setting [10]) is reported as 4.5%. Further, the “decrease in the sensitivity of isolated rat seminal vesicles to the stimulant activity of NE” value in [3] (in words) is “essentially inactive”. For the same compound, the “NE ED50 with 95% Conf. Limits” value in series [3] (isolated rat seminal vesicles) was 0.93 (0.80-1.08) μg/ml. For the same compound, the “α-adrenergic blocking activity relative to prazosin” value in series [3] (conclusion from isolated rat seminal vesicles, in words) was “less than one percent”. Moreover, the “% Blood Pressure Change” value in series [4] (setting [11]) was -19%; in [4] (setting [12]), -26%; in series [4] (setting [13]), -41%. Also, the median effective dose (ED50) in series [4] (setting [14]) was 2.3 mg/kg. The “antihypertensive potency compared to prazosin” value in [4] (in words) is “comparable antihypertensive potency to prazosin”. Moreover, in series [4] (relative to prazosin, oral, spontaneous hypertensive rats), the “Antihypertensive Activity Ratio” value is 0.91.
Take `COc1cc2nc(N3CCNCC3)nc(N)c2cc1OC` [Isomorph B, 4-amino-6,7-dimethoxy-2-(1-piperazinyl)quinazoline]: the solubility in water result in series [5] is given as “would not redissolve in boiling water”.
Consider `COc1cc2nc(N3CCN(C(=O)c4ccco4)CC3)nc(N)c2cc1OC` [Prazosin, 2-[4-(2-furoyl)-piperazin-1-yl]-4-amino-6,7-dimethoxyquinazoline, reference compound], for which the “peripheral α-adrenergic receptor blockade” value in [6] is reported as “functional peripheral α-adrenergic receptor blockade”. In series [3] (setting [10]), the “Percent Change From Control (NE ED50)” value came to 578%. For the same compound, the “decrease in the sensitivity of isolated rat seminal vesicles to the stimulant activity of NE” value in series [3] (in words) is “nearly a six fold decrease”. Moreover, in series [3] (isolated rat seminal vesicles), the “NE ED50 with 95% Conf. Limits” value was 6.03 (5.30-6.81) μg/ml. Besides, the results for the “% Blood Pressure Change” value in series [4] (setting [11]), in [4] (setting [12]) and in series [4] (setting [13]) were -14%, -29% and -42%, respectively. Further, the ED50 in series [4] (setting [14]) amounted to 2.1 mg/kg. For the same compound, the “vasodilation effect on vascular smooth muscle” value in series [7] is “direct peripheral vasodilation effect on vascular smooth muscle”.
As to `COc1cc2c(N)nc(N3CCN(C(=O)OCC(C)(C)O)CC3)nc2c(OC)c1OC` [Trimazosin], the “activity in humans as an antihypertensive agent” value in series [8] is recorded as “active in humans as an antihypertensive agent”. The “potency relative to prazosin (fold weaker)” value in series [9] was found to be 100 fold.
Turning to `COc1cc2nc(N3CCNCC3)nc(N)c2cc1OC` [Isomorph A, 4-amino-6,7-dimethoxy-2-(1-piperazinyl)quinazoline], the solubility in water result in series [5] was “water soluble”.

The values above are taken from patent US4001238A, “1,3,4-Oxadiazole amides” (Bristol-Myers Company, priority 1976, dated 1977).
